22 compounds from patent US20240279207A1, “SUBSTITUTED ACYL SULFONAMIDES FOR TREATING CANCER” (The Broad Institute, Inc., priority 2020, published 2024) can be followed below.

pIC50: −log10 of the molar value. Like-named read-outs stand apart in the source and are kept apart here.

Assay [1] concerns ESR1 transcription in MVLN cells. As to the kind of experiment: MVLN reporter assay: repression of ESR1 transcription (luciferase signal). Format: cell-based. As to conditions: Homo sapiens, luciferase signal after 24 h, read-out: MVLN reporter assay, IC50 [M] (arithmetic mean). From the text: KAT6A controls transcription of the ESR1 gene in breast cancer cells. Compound treatment that interferes with this mechanism was quantified using MVLN cells. These cells constitutively express the ER and are stably transfected with the luciferase (LUC) reporter gene and the corresponding hormone responsive element derived from the 5′-flanking region of the Xenopus Vitellogenin A2 gene (Pons et al., 1990, Demirpense et al., 1993, Joyeux et al., 1993). The repressive effect on ERα transcription activity of a test chemical is directly related to the luciferase measured in the lysate of treated MVLN cells. […] Each sample was prepared as duplicate and rim wells were excluded. For luciferase signal determination 100 μl of a 1:1 mixture of Steadylite plus (Perkin Elmer; 6016759) and assay medium was added after 24 h for 15 minutes and measured in Victor X3 (Perkin Elmer). To exclude any effects caused by cell loss during the treatment, cell density was determined using Alamar Blue (Invitrogen; DAL1100). Prior to the luciferase measurement 10 μl Alamar Blue were added to each well and the plates were incubated for 2 h in the incubator. Then fluorescence was measured with Victor X3 (Perkin Elmer) at 530 nm/590 nm.

In assay [2] the target is T1, Recombinant human His-tagged Kat6a protein (amino acids 194-810) (Homo sapiens, UniProt Q92794).
T1 construct: Kat6a protein (amino acids 194-810); His
T1 sequence (Q92794 194-810): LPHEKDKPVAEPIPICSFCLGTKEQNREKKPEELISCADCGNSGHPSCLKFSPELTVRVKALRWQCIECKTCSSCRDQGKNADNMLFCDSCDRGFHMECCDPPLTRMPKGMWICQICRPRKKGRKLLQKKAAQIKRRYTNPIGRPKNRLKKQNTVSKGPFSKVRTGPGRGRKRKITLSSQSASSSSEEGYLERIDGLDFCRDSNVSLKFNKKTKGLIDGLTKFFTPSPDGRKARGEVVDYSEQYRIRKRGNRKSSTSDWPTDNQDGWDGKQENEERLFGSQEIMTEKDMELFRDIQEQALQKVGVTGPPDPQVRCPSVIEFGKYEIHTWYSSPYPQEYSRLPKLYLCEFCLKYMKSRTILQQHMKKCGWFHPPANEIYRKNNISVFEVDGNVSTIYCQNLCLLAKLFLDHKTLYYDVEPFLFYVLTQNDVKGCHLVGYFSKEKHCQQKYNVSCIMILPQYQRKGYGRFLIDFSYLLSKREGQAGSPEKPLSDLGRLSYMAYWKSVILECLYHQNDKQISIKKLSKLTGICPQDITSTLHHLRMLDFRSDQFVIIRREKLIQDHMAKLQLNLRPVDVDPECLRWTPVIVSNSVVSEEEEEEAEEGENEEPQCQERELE
As to the kind of experiment: Kat6a activity assay (TR-FRET, acetylation of Histone-H4-derived peptide). It counts as biochemical. The conditions noted are these: 60 mins at 22° C., 220 nM H4 peptide, 600 nM Acetyl Coenzyme A, read-out: KAT6A - DPF/HAT domain IC50 [mol/l] (arithmetic mean). The method, then:
Kat6a inhibitory activities of the compounds described in the present invention were quantified using a Fluorescence Resonance Energy Transfer (TR-FRET) assay which measures acetylation of a synthetic, biotinylated Histone-H4-derived peptide by the enzyme.
In this case 50 nl DMSO were used instead of compounds. […] IC50 values were determined by regression analysis based on a 4 parameter equation (minimum, maximum, ICM, Hill; Y=Max+(Min−Max)/(1+(X/ICso) Hill) using the Screener Software (Genedata).
(In general: Time-resolved FRET reads energy transfer from a long-lived donor to a nearby acceptor.)

As a reminder, the IC50 is the midpoint of a concentration-inhibition curve. Take `CC(Oc1ccccc1S(=O)(=O)NC(=O)c1cc2c(F)cc(N3CCC3)cc2o1)C(F)(F)F` (racemic) [Example 13, 6-(Azetidin-1-yl)-4-fluoro-N-(2-{[-1,1,1-trifluoropropan-2-yl]oxy}benzene-1-sulfonyl)-1-benzofuran-2-carboxamide (rac)]: the IC50 in assay [1] (MVLN, 24 h) was 1.66e-07 M. In assay [2], the pIC50 is 7.72.
For `CC(O)c1ccc(Cl)c(S(=O)(=O)NC(=O)c2cc3c(F)cc(N4CCC4)cc3o2)c1` (racemic) [Example 100, 6-(Azetidin-1-yl)-N-[2-chloro-5-(1-hydroxyethyl)benzene-1-sulfonyl]-4-fluoro-1-benzofuran-2-carboxamide (rac)], the IC50 in assay [1] (MVLN, 24 h) is 1.29e-06 M. For the same compound, in assay [2], the pIC50 was 6.86.
On to `CCOc1ccccc1S(=O)(=O)NC(=O)c1cc2c(F)cc(N3CCC3CNC(=O)OC)cc2o1` (racemic) [Example 105, Methyl {[1-{2-[(2-ethoxybenzene-1-sulfonyl)carbamoyl]-4-fluoro-1-benzofuran-6-yl}azetidin-2-yl]methyl}carbamate (rac)], for which, in assay [1] (MVLN, 24 h), the concentration for half-maximal inhibition (IC50) was over 2e-05 M. In assay [2], the pIC50 was 5.95.
In the same order, the values of `CCOc1ccccc1S(=O)(=O)NC(=O)c1cc2c(F)cc(N3CC[C@@H]3C(N)=O)cc2o1` (racemic) [Example 169, 1-{2-[(2-Ethoxybenzene-1-sulfonyl)carbamoyl]-4-fluoro-1-benzofuran-6-yl}azetidine-2-carboxamide (rac)] are over 2e-05 M and 5.39.
For `COc1ccc2cccnc2c1S(=O)(=O)NC(=O)c1cc2c(F)cc(N3CCC3)cc2o1` [Example 8, 6-(Azetidin-1-yl)-4-fluoro-N-(7-methoxyquinoline-8-sulfonyl)-1-benzofuran-2-carboxamide], in assay [1] (MVLN, 24 h), the IC50 was determined as 1.25e-07 M. Further, the pIC50 in assay [2] is 7.68.
The like results for `Cc1ccc(OC2CCCC2)c(S(=O)(=O)NC(=O)c2cc3c(F)cc(N4CCC4)cc3o2)c1` [Example 9, 6-(Azetidin-1-yl)-N-[2-(cyclopentyloxy)-5-methylbenzene-1-sulfonyl]-4-fluoro-1-benzofuran-2-carboxamide] were, in that order, 1.34e-07 M and 7.67.
In the same order, the values of `CN(C)c1ccccc1S(=O)(=O)NC(=O)c1cc2c(F)cc(N3CCC3)cc2o1` [Example 11, 6-(Azetidin-1-yl)-N-[2-(dimethylamino)benzene-1-sulfonyl]-4-fluoro-1-benzofuran-2-carboxamide] are 1.45e-07 M and 7.12.
The like results for `O=C(NS(=O)(=O)c1cccc2c1OCCC2)c1cc2c(F)cc(N3CCC3)cc2o1` [Example 12, 6-(Azetidin-1-yl)-N-(3,4-dihydro-2H-1-benzopyran-8-sulfonyl)-4-fluoro-1-benzofuran-2-carboxamide] were, in that order, 1.63e-07 M and 7.37.
`O=C(NS(=O)(=O)c1c(F)cccc1OC1CCC1)c1cc2c(F)cc(N3CCC3)cc2o1` [Example 16, 6-(Azetidin-1-yl)-N-[2-(cyclobutyloxy)-6-fluorobenzene-1-sulfonyl]-4-fluoro-1-benzofuran-2-carboxamide]: the IC50 in assay [1] (MVLN, 24 h) stood at 1.69e-07 M. The pIC50 in assay [2] was 7.36.
Turning to `CC1Cc2cccc(S(=O)(=O)NC(=O)c3cc4c(F)cc(N5CCC5)cc4o3)c2O1` (centres unmarked) [Example 18, 6-(Azetidin-1-yl)-4-fluoro-N-[2-methyl-2,3-dihydro-1-benzofuran-7-sulfonyl]-1-benzofuran-2-carboxamide], the IC50 in assay [1] (MVLN, 24 h) was 1.92e-07 M. Moreover, the pIC50 in assay [2] was 7.62.
The like results for `CC1(C)Cc2cccc(S(=O)(=O)NC(=O)c3cc4c(F)cc(N5CCC5)cc4o3)c2O1` [Example 21, 6-(Azetidin-1-yl)-N-(2,2-dimethyl-2,3-dihydro-1-benzofuran-7-sulfonyl)-4-fluoro-1-benzofuran-2-carboxamide] were, in that order, 2.98e-07 M and 7.26.
As for `O=C(NS(=O)(=O)c1ccccc1I)c1cc2c(F)cc(N3CCC3)cc2o1` [Example 22, 6-(Azetidin-1-yl)-4-fluoro-N-(2-iodobenzene-1-sulfonyl)-1-benzofuran-2-carboxamide], the IC50 in assay [1] (MVLN, 24 h) was 3.19e-07 M. For the same compound, in assay [2], the pIC50 is 7.47.
In the same order, the values of `CCOc1cccc(C(C)C)c1S(=O)(=O)NC(=O)c1cc2c(F)cc(N3CCC3)cc2o1` [Example 23, 6-(Azetidin-1-yl)-N-[2-ethoxy-6-(propan-2-yl)benzene-1-sulfonyl]-4-fluoro-1-benzofuran-2-carboxamide] are 2.72e-07 M and 7.54.
In the same order, the values of `O=C(NS(=O)(=O)c1c(F)cccc1C1CCC1)c1cc2c(F)cc(N3CCC3)cc2o1` [Example 24, 6-(Azetidin-1-yl)-N-(2-cyclobutyl-6-fluorobenzene-1-sulfonyl)-4-fluoro-1-benzofuran-2-carboxamide] are 3e-07 M and 7.33.
For the compound `CCOc1cccc(C)c1S(=O)(=O)NC(=O)c1cc2c(F)cc(N3CCC3)cc2o1` [Example 25, 6-(Azetidin-1-yl)-N-(2-ethoxy-6-methylbenzene-1-sulfonyl)-4-fluoro-1-benzofuran-2-carboxamide], the half-maximal inhibitory concentration (IC50) in assay [1] (MVLN, 24 h) was 3.26e-07 M. Also, the pIC50 in assay [2] was 6.83.
The like results for `COc1ccc(Cl)c(C)c1S(=O)(=O)NC(=O)c1cc2c(F)cc(N3CCC3)cc2o1` [Example 27, 6-(Azetidin-1-yl)-N-(3-chloro-6-methoxy-2-methylbenzene-1-sulfonyl)-4-fluoro-1-benzofuran-2-carboxamide] were, in that order, 3.54e-07 M and 7.30.
The like results for `CC(C)Oc1cccc(C(F)(F)F)c1S(=O)(=O)NC(=O)c1cc2c(F)cc(N3CCC3)cc2o1` [Example 28, 6-(Azetidin-1-yl)-4-fluoro-N-{2-[(propan-2-yl)oxy]-6-(trifluoromethyl)benzene-1-sulfonyl}-1-benzofuran-2-carboxamide] were, in that order, 3.56e-07 M and 6.87.
Consider `CC(C)Oc1cccc(Cl)c1S(=O)(=O)NC(=O)c1cc2c(F)cc(N3CCC3)cc2o1` [Example 29, 6-(Azetidin-1-yl)-N-{2-chloro-6-[(propan-2-yl)oxy]benzene-1-sulfonyl}-4-fluoro-1-benzofuran-2-carboxamide], for which, in assay [1] (MVLN, 24 h), the IC50 turned out to be 3.79e-07 M. Also, the pIC50 in assay [2] was 7.30.
The like results for `CC(C)c1ccc(C(C)C)c(S(=O)(=O)NC(=O)c2cc3c(F)cc(N4CCC4)cc3o2)c1` [Example 30, 6-(Azetidin-1-yl)-N-[2,5-di(propan-2-yl)benzene-1-sulfonyl]-4-fluoro-1-benzofuran-2-carboxamide] were, in that order, 4.18e-07 M and 7.61.
With `CC(C)Oc1cccc(Br)c1S(=O)(=O)NC(=O)c1cc2c(F)cc(N3CCC3)cc2o1` [Example 39, 6-(Azetidin-1-yl)-N-{2-bromo-6-[(propan-2-yl)oxy]benzene-1-sulfonyl}-4-fluoro-1-benzofuran-2-carboxamide], the IC50 in assay [1] (MVLN, 24 h) was determined as 7.88e-07 M.
As to `CN(C(=O)Oc1ccccc1S(=O)(=O)NC(=O)c1cc2c(F)cc(N3CCC3)cc2o1)c1ccccc1` [Example 62, 2-{[6-(Azetidin-1-yl)-4-fluoro-1-benzofuran-2-carbonyl]sulfamoyl}phenyl methyl(phenyl)carbamate], the IC50 in assay [1] is 6.43e-06 M.
As for `COc1ccc(C2=CCN(C(=O)OC(C)(C)C)CC2)cc1S(=O)(=O)NC(=O)c1cc2c(F)cc(N3CCC3)cc2o1` [Example 197, tert-butyl 4-(3-{[6-(azetidin-1-yl)-4-fluoro-1-benzofuran-2-carbonyl]sulfamoyl}-4-methoxyphenyl)-3,6-dihydropyridine-1(2H)-carboxylate], in assay [1] (MVLN, 24 h), the IC50 was found to be 1.62e-07 M.
